Measurements as given in patent US10160771B2, “Hepatitis C virus inhibitors and uses thereof in preparation of drugs” (priority 2014, dated 2018).

Assays:
[1] = system: HCV genotype 1b (HCV-1b) replicon cells; experiment: HCV genotype 1b replicon luciferase assay (EC50); type: cell-based, hepatitis C virus genotype 1b (Con1 clone); settings: 3 days, luciferase (Bright-Glo)
How it was run: (§1)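 H77-derived 1a (K1691R, K2040R, S2204I) or Con1-derived 1b (E1202G, T1280I, K1846T) luciferase replicon cells, 8000/well, exposed 3 days at 37° C. to 6-point 5-fold dilutions (top 100, 10 or 1 nM; 0.5% DMSO), in duplicate. Bright-Glo luminescence read; EC50 from nonlinear fit of % inhibition.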

[2] = Cell Titer-fluor cell activity assay in HCV-1b replicon cells (CC50); type: cell-based
How it was run: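 Con1 genotype 1b replicon cells (E1202G, T1280I, K1846T adaptive mutations), 8000 cells/well, exposed to 6-point 5-fold dilutions from 100, 10 or 1 nM top concentration in 0.5% DMSO, duplicate wells, 3 days at 37 °C. Viability read by Cell Titer-fluor (Ex 405/Em 515 nm) after 30 min; CC50 from nonlinear fit of inhibition %.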

[3] = system: HCV genotype 1a (HCV-1a) replicon cells; experiment: HCV genotype 1a replicon luciferase assay (EC50); type: cell-based, hepatitis C virus genotype 1a (H77 clone); settings: 3 days, luciferase (Bright-Glo)
How it was run: as §1

| SMILES | EC50 ([1]; Hepatitis C virus, 72 h) [nM] | CC50 at 3 days [2] [nM] | EC50 ([3]; Hepatitis C virus, 72 h) [nM] | EC50 [3] [nM] | EC50 [1] [nM] |
| --- | --- | --- | --- | --- | --- |
| CCOC(=O)CNC(=O)[C@@H](NC(=O)[C@@H]1[C@@H]2CC[C@@H](C2)[C@H]1c1ncc(-c2ccc(-c3ccc(-c4cnc([C@@H]5CCCN5C(=O)[C@@H](NC(=O)OC)C(C)C)[nH]4)cc3)cc2)[nH]1)C(C)C [AA_301_ENDOA2] | 0.101 to 1 | > 1 | 10 to 100 |  |  |
| COC(=O)N[C@H](C(=O)N1CCC[C@H]1c1ncc(-c2ccc(-c3ccc(-c4cnc([C@@H]5[C@H]6CC[C@H](C6)[C@H]5C(=O)N(C)c5ccccn5)[nH]4)cc3)cc2)[nH]1)C(C)C [AA_195_ENDOA2] | 0.001 to 0.1 | > 1 | 0.101 to 1 |  |  |
| COC(=O)N[C@H](C(=O)N1CCC[C@H]1c1ncc(-c2ccc(-c3ccc(-c4[nH]c([C@@H]5CCCN5C(=O)[C@@H](NC(=O)OC)C(C)C)c5c4COC5)cc3)cc2)[nH]1)C(C)C [AG_060_B] | 0.001 to 0.1 | > 10 | 0.001 to 0.1 |  |  |
| COC(=O)N[C@H](C(=O)N1CCC[C@H]1c1ncc(-c2ccc(-c3ccc(-c4cnc([C@H]5C6CCC(C6)[C@@H]5C(=O)N(C)c5ccccn5)[nH]4)cc3)cc2)[nH]1)C(C)C (stereo partly drawn) [AA_195_A] | 0.001 to 0.1 | > 1 | 0.101 to 1 |  |  |
| COC(=O)N[C@H](C(=O)N1CCC[C@H]1c1ncc(-c2ccc(-c3ccc(-c4cnc([C@H]5C6CCC(C6)[C@@H]5C(=O)NCc5ccccc5)[nH]4)cc3)cc2)[nH]1)C(C)C (stereo partly drawn) [AA_207_A] | 0.001 to 0.1 | > 1 | 1 to 10 |  |  |
| COC(=O)N[C@H](C(=O)N1CCCC1c1ccc(-c2ccc(-c3ccc(-c4cnc([C@@H]5CCCN5C(=O)[C@@H](NC(=O)OC)C5CCOC5)[nH]4)cc3)cc2)[nH]1)C(C)C (stereo partly drawn) [AG_054] | 0.001 to 0.1 | > 10 | 0.101 to 1 |  |  |
| COC(=O)N[C@H](C(=O)N1C[C@@H](OC)C[C@H]1c1ncc(-c2ccc(-c3ccc(-c4cnc([C@H]5C6CCC(C6)[C@@H]5C(=O)NCc5cccnc5)[nH]4)cc3)cc2)[nH]1)[C@@H](C)OC (stereo partly drawn) [AA_231_B] | 0.001 to 0.1 | > 1 | 1 to 10 |  |  |
| COC(=O)N[C@H](C(=O)N1CCC[C@H]1c1ncc(-c2ccc(-c3ccc(-c4cnc([C@@H]5C6CCC(C6)[C@H]5C(=O)NCc5cccnc5C5CC5)[nH]4)cc3)cc2)[nH]1)C(C)C (stereo partly drawn) [AA_234_B] | 0.001 to 0.1 | > 1 | 10 to 100 |  |  |
| COC(=O)N[C@H](C(=O)N1CCC[C@H]1c1ncc(-c2ccc(-c3ccc(-c4cnc([C@@H]5C6CCC(C6)[C@H]5C(=O)NCCc5ccncc5)[nH]4)cc3)cc2)[nH]1)C(C)C (stereo partly drawn) [AA_209_B] | 0.101 to 1 | > 1 | 10 to 100 |  |  |
| COC(=O)N[C@H](C(=O)N1CCC[C@H]1c1ncc(-c2ccc(-c3ccc(-c4cnc(C5C6CCC(C6)[C@H]5C(=O)Nc5ccccc5)[nH]4)cc3)cc2)[nH]1)[C@@H](C)OC (stereo partly drawn) [AA_246_B] | 0.101 to 1 | > 1 | 10 to 100 |  |  |
| COC(=O)N[C@H](C(=O)N1CCC[C@H]1c1ncc(-c2ccc(-c3ccc(-c4cnc(C5C6CCC(C6)[C@H]5C(=O)NCc5cccnc5)[nH]4)cc3)cc2)[nH]1)[C@@H](C)OC (stereo partly drawn) [AA_179_A] | 0.001 to 0.1 | > 1 | 1 to 10 |  |  |
| COC(=O)N[C@H](C(=O)N1CCC[C@H]1c1ncc(-c2ccc(-c3ccc(-c4cnc(C5C6CCC(C6)[C@@H]5C(=O)NCc5cccnc5C(C)C)[nH]4)cc3)cc2)[nH]1)[C@@H](C)OC (stereo partly drawn) [AA_245_B] | 0.101 to 1 | > 1 | 10 to 100 |  |  |
| COC(=O)N[C@H](C(=O)N1CCC[C@H]1c1[nH]c(-c2ccc(-c3ccc(-c4cnc([C@@H]5CCCN5C(=O)[C@@H](NC(=O)OC)[C@@H](C)OC)[nH]4)cc3)cc2)c2c1CCC2)C(C)C [AG_066] | 0.001 to 0.1 | > 1 | 1 to 10 |  |  |
| COC(=O)N[C@H](C(=O)N1CCC[C@H]1c1ncc(-c2ccc(-c3ccc(-c4cnc([C@@H]5C6CCC(C6)[C@H]5C(=O)NCc5nccs5)[nH]4)cc3)cc2)[nH]1)C(C)C (stereo partly drawn) [AA_208_B] | 0.001 to 0.1 | > 1 | 1 to 10 |  |  |
| COC(=O)N[C@H](C(=O)N1CCC[C@H]1c1ncc(-c2ccc(-c3ccc(-c4cnc([C@H]5C6CCC(C6)[C@@H]5C(=O)NCc5cccnc5)[nH]4)cc3)c(F)c2)[nH]1)C(C)C (stereo partly drawn) [AA_197_A] | 0.001 to 0.1 | > 1 | 1 to 10 |  |  |
| COC(=O)N[C@H](C(=O)N1CCCC1c1ncc(-c2ccc(-c3ccc(-c4cnc([C@H]5C6CCC(C6)C5C(=O)NCc5cccnc5)[nH]4)cc3)c(F)c2)[nH]1)[C@@H](C)OC (stereo partly drawn) [AA_280_B] | 0.001 to 0.1 | > 1 | 0.101 to 1 |  |  |
| COC(=O)N[C@H](C(=O)N1CCC[C@H]1c1ncc(-c2ccc(-c3ccc(-c4cnc([C@H]5C6CCC(C6)[C@@H]5C(=O)NCC5CNc6ccccc6C5)[nH]4)cc3)cc2)[nH]1)C(C)C (stereo partly drawn) [AA_218] | 0.101 to 1 | > 1 | 10 to 100 |  |  |

| SMILES | EC50 ([1]; Hepatitis C virus, 72 h) [nM] | CC50 at 3 days [2] [nM] | EC50 ([3]; Hepatitis C virus, 72 h) [nM] | EC50 [3] [nM] | EC50 [1] [nM] |
| --- | --- | --- | --- | --- | --- |
| COC(=O)N[C@H](C(=O)N1CCC[C@H]1c1ncc(-c2ccc(-c3ccc(-c4cnc(C5C6CCC(C6)[C@@H]5C(=O)NNc5nccnc5Cl)[nH]4)cc3)cc2)[nH]1)[C@@H](C)OC (stereo partly drawn) [AA_250_A] | 0.101 to 1 | > 1 | 10 to 100 |  |  |
| COC(=O)N[C@H](C(=O)N1CCC[C@H]1c1ccc(-c2ccc(-c3ccc(-c4cnc([C@@H]5CCCN5C(=O)[C@@H](NC(=O)OC)[C@@H](C)OC)[nH]4)cc3)cc2)[nH]1)[C@@H](C)OC [AG_118_B] | 0.001 to 0.1 | > 1 | 1 to 10 |  |  |
| COC(=O)N[C@H](C(=O)N1CCC[C@H]1c1ncc(-c2ccc(-c3ccc(-c4cnc(C5C6CCC(C6)[C@H]5C(=O)N[C@H](c5cccnc5)C(C)C)[nH]4)cc3)cc2)[nH]1)[C@@H](C)OC (stereo partly drawn) [AA_267_B] | 0.101 to 1 | > 1 |  | 1 to 10 |  |
| COC(=O)N[C@H](C(=O)N1CCC[C@H]1c1[nH]c(-c2ccc(-c3ccc(-c4cnc([C@@H]5CCCN5C(=O)[C@@H](NC(=O)OC)C5CC5)[nH]4)cc3)cc2)c2c1CCC2)C(C)C [AG_086] | 0.001 to 0.1 | > 1 | 10 to 100 |  |  |
| COC(=O)N[C@H](C(=O)N1CCC[C@H]1c1[nH]c(-c2ccc(-c3ccc(-c4[nH]c([C@@H]5CCCN5C(=O)[C@@H](NC(=O)OC)[C@@H](C)OC)c5c4COC5)cc3)cc2)c2c1COC2)[C@@H](C)OC [AG_088_A] | 0.001 to 0.1 | > 1 | 0.101 to 1 |  |  |
| COC(=O)NC(C(=O)N1CCC[C@H]1c1nc2ccc(-c3ccc(-c4[nH]c([C@@H]5CCCN5C(=O)[C@@H](NC(=O)OC)C(C)OC)c5c4CCC5)cc3)cc2[nH]1)[C@@H](C)OC (stereo partly drawn) [AG_092] | 0.001 to 0.1 | > 1 | 10 to 100 |  |  |
| COC(=O)N[C@H](C(=O)N1CCC[C@H]1c1ncc(-c2ccc(-c3ccc(-c4cnc([C@H]5CCCC[C@@H]5C(=O)NCc5ccc(Cl)nc5)[nH]4)cc3)cc2)[nH]1)C(C)C [AA_185] | 0.101 to 1 | > 5 | 10 to 100 |  |  |
| COC(=O)N[C@H](C(=O)N1CCC[C@H]1c1ncc(-c2ccc(-c3ccc(-c4cnc([C@H]5C6CCC(C6)[C@@H]5C(=O)NC(c5cccnc5)C(C)C)[nH]4)cc3)cc2)[nH]1)C(C)C (single isomer, unassigned) [AA_233_A] |  | > 1 |  | 0.101 to 1 | 0.001 to 0.1 |
| COC(=O)NC(C(=O)N1CCC[C@H]1c1ncc(-c2ccc(-c3ccc(-c4cnc(C5C6CCC(C6)[C@@H]5C(=O)NCc5cccnc5)[nH]4)cc3)cc2)[nH]1)C1CCOCC1 (stereo partly drawn) [AA_191] | 0.101 to 1 | > 1 | 1 to 10 |  |  |
| COC(=O)N[C@H](C(=O)N1CCC[C@H]1c1ncc(-c2ccc(-c3ccc(-c4[nH]c([C@@H]5CCCN5C(=O)[C@@H](NC(=O)OC)[C@@H](C)OC)c5c4COC5)cc3)cc2)[nH]1)C(C)C [AG_079_A] | 0.001 to 0.1 | > 5 | 0.001 to 0.1 |  |  |
| COC(=O)N[C@H](C(=O)N1CCC[C@H]1c1[nH]c(-c2ccc(-c3ccc(-c4cnc([C@@H]5CCCN5C(=O)[C@@H](NC(=O)OC)C(C)(C)C)[nH]4)cc3)cc2)c2c1CCC2)C(C)C [AG_093] | 0.001 to 0.1 | > 1 | 10 to 100 |  |  |
| COC(=O)N[C@H](C(=O)N1CCC[C@H]1c1ncc(-c2ccc(-c3ccc(-c4cnc([C@H]5C6CCC(C6)[C@@H]5C(=O)NCc5cccnc5O)[nH]4)cc3)cc2)[nH]1)C(C)C (stereo partly drawn) [AA_228] | 0.001 to 0.1 | > 1 | 1 to 10 |  |  |
| COC(=O)N[C@H](C(=O)N1CCC[C@H]1c1ncc(-c2ccc(-c3ccc(-c4cnc(C5C6CCC(C6)[C@H]5C(=O)N(NC(=O)OC)C(C)C)[nH]4)cc3)cc2)[nH]1)C(C)C (stereo partly drawn) [AA_121_B] |  | > 10 | 1 to 10 |  | 0.001 to 0.1 |
| COC(=O)NC(C(=O)N1CCC[C@@H]1c1[nH]c(-c2ccc(-c3ccc(-c4cnc([C@@H]5CCCN5C(=O)[C@@H](NC(=O)OC)[C@@H](C)OC)[nH]4)cc3)cc2)c2c1CCC2)[C@@H](C)OC (stereo partly drawn) [AG_068_B] | 0.101 to 1 | > 1 | 10 to 100 |  |  |
| COC(=O)N[C@H](C(=O)N1CC2(CCCC2)C[C@H]1c1ncc(-c2ccc(-c3ccc(-c4[nH]c([C@@H]5CCCN5C(=O)[C@@H](NC(=O)OC)[C@@H](C)OC)c5c4COC5)cc3)cc2)[nH]1)[C@@H](C)OC [AG_111] | 0.001 to 0.1 | > 1 | 0.101 to 1 |  |  |
| COC[C@H](NC(=O)OC)C(=O)N1CCC[C@H]1c1ncc(-c2ccc(-c3ccc(-c4ccc([C@@H]5CCCN5C(=O)[C@@H](NC(=O)OC)C(C)C)[nH]4)cc3)cc2)[nH]1 [AG_100] | 0.001 to 0.1 | > 1 | 0.101 to 1 |  |  |
